Data on 19 compounds can be found in PubChem BioAssay (NCI).

Assay in all cases: inhibition of tumour cell growth, NCI panel, 48 h
Experiment [1] deals with T-47D breast.
The test system of experiment [2] is NCI-H23 lung.
For experiment [3], the system named is MDA-MB-435.
The subject of experiment [4] is BT-549 breast.
Experiment [5] concerns LOX IMVI melanoma.
The test system of experiment [6] is M14 melanoma.
For experiment [7], the system named is K-562 leukemia.
The subject of experiment [8] is SNB-75 CNS.
The test system of experiment [9] is HCT-116 colon.
Experiment [10] concerns HT29 colon.
The test system of experiment [11] is MOLT-4 leukemia.
Experiment [12] has as its system CAKI-1 renal.
Experiment [13] relates to OVCAR-4 ovarian.
Experiment [14] relates to DU-145 prostate.
For experiment [15], the system named is SR leukemia.

SMILES strings stand for the structures.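 Results reflect a 48-hour exposure of cells in 96-well plates to compound at five concentrations. Definition used: TGI = concentration required for complete inhibition of growth.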 Where a SMILES comes first, the peptide text is derived from it. The star is where a group is joined. Ethyl(2-NMe3+) = C[N+](C)(C)CC*; Boc = CC(C)(C)OC(=O)*

On to `c1ccc2c(c1)cc1c3[nH]c4ccccc4c3ccn21`, for which the TGI in experiment [1], in experiment [2], in experiment [3], in [4], in experiment [5] and in experiment [6] was above 10 µM in each case. The TGI in experiment [7], in [8], in experiment [9], in experiment [10], in experiment [11] and in experiment [12] was above 10 µM each time. The TGI in experiment [13], in experiment [14] and in experiment [15] was above 10 µM throughout.
Consider `CCOc1cc2c(cc1O)CC[C@@H]1[C@@H]2CC[C@]2(C)C(N)CC[C@@H]12` (some centres undefined), for which the TGI in experiment [1] came to 25.3 µM; in experiment [2] it was 16.7 µM; in [3], 3.96 µM; in [4] it was 30.8 µM; in [5], 10.9 µM; in experiment [6], 25.2 µM. For the same compound, the TGI is 27.5 µM in experiment [7]; 6.48 µM in experiment [8]; 12.6 µM in experiment [9]; 6.4 µM in experiment [10]; 24.7 µM in [11]; 22.7 µM in experiment [12]. The TGI in experiment [13] stood at 58.7 µM; in experiment [14] it was 7.08 µM; in experiment [15], 7 µM.
On to `CN(C)CCCNc1c(C#N)[n+]([O-])c2cc(Cl)ccc2[n+]1[O-]`, for which the TGI is 40.7 µM in experiment [1]; 23.5 µM in experiment [2]; above 67.2 µM in experiment [3]; 31.1 µM in [4]; 56.9 µM in experiment [5]; 37.6 µM in [6]. Besides, the TGI was 20.8 µM in experiment [7]; above 100 µM in experiment [8]; 30 µM in [9]; above 40 µM in [10]; 20.2 µM in experiment [11]; above 51.8 µM in experiment [12]. The TGI was 14.2 µM in [13], above 100 µM in experiment [14] and 5.28 µM in experiment [15].
On to `OC1[C@H](O)CN(OCc2ccccc2)C[C@@H]1O` (some centres undefined), for which the TGI in [1], in [2], in experiment [3], in experiment [4], in experiment [5] and in [6] was above 100 µM in each case. Besides, the TGI in [7], in [8], in experiment [9], in experiment [10], in experiment [11] and in [12] was above 100 µM each time. The TGI in experiment [13], in experiment [14] and in experiment [15] was above 100 µM in each case.
As for `CC(C)(C)OC(=O)NC(CCC(=O)OCc1ccccc1)C(=O)NCCCO` (centres undefined), the TGI in [1], in experiment [2], in [3], in [4], in [5] and in [6] was above 100 µM throughout. In addition, the TGI in experiment [7], in experiment [8], in experiment [9], in experiment [10], in experiment [11] and in experiment [12] was above 100 µM in each case. The TGI in [13], in experiment [14] and in [15] was above 100 µM in each case.
As to `COc1cccc(N2C(=O)/C(=C\c3ccccc3)SC2c2cc(OC)c(OC)c(OC)c2)c1` (centres undefined), the TGI in experiment [1] is 94.3 µM; in experiment [2], above 100 µM; in experiment [3], above 100 µM; in [4], above 100 µM; in [5] it was above 100 µM; in experiment [6], above 100 µM. Moreover, the TGI was above 100 µM in experiment [7]; 57.3 µM in [8]; above 100 µM in [9]; above 100 µM in experiment [10]; above 100 µM in experiment [11]; above 100 µM in [12]. In addition, the TGI in experiment [13], in [14] and in experiment [15] was above 100 µM throughout.
For `Nc1[nH]c(=S)c2c(N)n[nH]c2c1C(=O)Nc1ccccc1`, the TGI in [1], in experiment [2], in experiment [3], in experiment [4], in experiment [5] and in [6] was above 100 µM throughout. Moreover, the TGI in experiment [7], in [8], in experiment [9], in [10], in experiment [11] and in [12] was above 100 µM in each case. The TGI in [13], in experiment [14] and in experiment [15] was above 100 µM in each case.
For `NC1CC(Cl)c2c(Cl)sc(Cl)c21` (centres undefined), the TGI in experiment [1], in experiment [2], in experiment [3], in experiment [4], in experiment [5] and in experiment [6] was above 100 µM throughout. Besides, the TGI in [7], in experiment [8], in experiment [9], in [10], in experiment [11] and in experiment [12] was above 100 µM each time. Besides, the TGI in experiment [13], in experiment [14] and in [15] was above 100 µM each time.
As for `O=c1n(-c2ccccc2)c(=O)n2n1C1Cc3ccccc3C12` (centres undefined), the TGI in experiment [1], in experiment [2], in [3], in [4], in experiment [5] and in experiment [6] was above 100 µM each time. Moreover, the TGI in experiment [7], in [8], in [9], in experiment [10], in experiment [11] and in [12] was above 100 µM each time. Also, the TGI in experiment [14] and in experiment [15] was above 100 µM in each case.
For the compound `O=[N+]([O-])c1cc2c(c([N+](=O)[O-])c1)NCc1ccccc1O2`, the TGI in experiment [1] was above 100 µM; in experiment [2] it was above 100 µM; in [3], above 100 µM; in experiment [4] it was above 100 µM; in experiment [5], above 100 µM; in [8], 48.2 µM. Also, the TGI in [9], in experiment [10], in [11], in experiment [12], in experiment [13] and in experiment [14] was above 100 µM each time. The TGI in [15] is above 100 µM.
As to `Cc1cc2nc(N3C(=O)/C(=C/c4ccccc4S)N=C3c3ccccc3)sc2cc1C`, the TGI in [1] is above 100 µM; in experiment [3], 95.9 µM; in [4], above 100 µM; in experiment [5] it was above 100 µM; in experiment [6], above 100 µM; in experiment [7], above 100 µM. Further, the TGI is above 100 µM in experiment [8]; 61.3 µM in experiment [9]; 76.7 µM in experiment [10]; above 100 µM in experiment [11]; above 100 µM in [12]; above 100 µM in experiment [13]. Further, the TGI in experiment [14] and in experiment [15] was above 100 µM each time.
Consider `O=S(Nc1ccccc1)c1ccc(Cl)c(Cl)c1` (centres undefined), for which the TGI in experiment [1] is 42.4 µM; in [2] it was above 100 µM; in experiment [3], 92.9 µM; in experiment [4], 54.4 µM; in experiment [5] it was above 100 µM; in experiment [6] it was above 100 µM. Further, the TGI in experiment [7], in experiment [9], in experiment [10], in experiment [11], in experiment [13] and in experiment [14] was above 100 µM throughout. Also, the TGI in [15] is above 100 µM.
Consider `COc1cc([C@H]2CC(=O)C[C@H](c3cc(OC)c(OC)c(OC)c3)C23C(=O)c2ccccc2C3=O)cc(OC)c1OC`, for which the TGI in experiment [1], in experiment [2], in [3], in experiment [4], in [6] and in [7] was above 100 µM throughout. The TGI is 63.7 µM in experiment [9]; above 100 µM in experiment [10]; above 100 µM in experiment [11]; above 100 µM in [12]; above 100 µM in experiment [14]; above 100 µM in [15].
As to `O=C(Nc1ccccc1)n1[nH]c(=O)n(-c2ccccc2)c1=O`, the TGI in experiment [1], in experiment [2], in [3], in experiment [4], in [5] and in [7] was above 100 µM in each case. Besides, the TGI in experiment [8], in experiment [9], in experiment [10], in experiment [12], in [13] and in experiment [14] was above 100 µM in each case. This compound also had a TGI in experiment [15] above 100 µM.
`CC(NC(=O)C(Cc1ccc(OCC[N+](C)(C)C)cc1)NC(=O)OC(C)(C)C)C(=O)NC(Cc1ccccc1)C(=O)NCC(N)=O` (centres undefined) (Boc-Y(Ethyl(2-NMe3+))AFG-NH2; configuration not given here): the TGI in experiment [1] is above 100 µM; in experiment [2], 31.8 µM; in experiment [3] it was above 100 µM; in experiment [4] it was 45.8 µM; in experiment [5], above 100 µM; in experiment [6] it was above 100 µM. The TGI in [7] was above 100 µM; in [8] it was 30.3 µM; in [9], above 100 µM; in [10], above 100 µM; in [11] it was above 100 µM; in experiment [12] it was above 100 µM. The TGI in [13] and in experiment [14] was above 100 µM in each case.
As to `CN1C(=O)C(c2c[nH]c3ccccc23)N(C)C(=O)C1c1c[nH]c2ccccc12` (centres undefined), the TGI in experiment [1], in experiment [2], in experiment [3], in experiment [4], in experiment [5] and in experiment [6] was above 100 µM each time. The TGI was above 100 µM in [7]; 88.2 µM in experiment [8]; above 100 µM in experiment [9]; above 100 µM in experiment [10]; above 100 µM in [11]; above 100 µM in experiment [12]. Besides, the TGI in experiment [13] and in experiment [14] was above 100 µM each time.
As for `COc1ccc(NC(=O)/C(=N/NC(N)=S)C2C(=O)NC(=S)NC2=O)c(OC)c1`, the TGI in experiment [1], in experiment [2], in experiment [3], in [4], in experiment [5] and in [6] was above 100 µM throughout. Besides, the TGI in [7], in experiment [8], in experiment [9], in experiment [10], in experiment [11] and in experiment [12] was above 100 µM throughout. Also, the TGI in experiment [13] and in experiment [14] was above 100 µM each time.
Regarding `COC(=O)c1c2c(cc3c1CC1(Cc4ccc(C(C)=O)cc4C1)C3)CCC2` (centres undefined), the TGI in experiment [1] was above 100 µM; in experiment [2], above 100 µM; in [3], 50.8 µM; in [4] it was above 100 µM; in experiment [5], 60.2 µM; in experiment [7], above 100 µM. Further, the TGI in experiment [8] was above 100 µM; in experiment [9], above 100 µM; in experiment [10], 89 µM; in experiment [11], 86.5 µM; in experiment [12] it was above 100 µM; in experiment [13] it was above 100 µM. Further, the TGI in experiment [14] and in [15] was above 100 µM throughout.
Regarding `COC(=O)C(Cc1ccc(Oc2cc(CC(NC(=O)c3ccccc3)C(=O)OC)ccc2OC)cc1)NC(=O)c1ccccc1` (centres undefined), the TGI in experiment [1] was above 51.4 µM; in experiment [2], above 82.2 µM; in experiment [3] it was above 63.5 µM; in [4] it was above 81.3 µM; in experiment [5], above 71.6 µM; in experiment [6], 20.9 µM. The TGI in experiment [7], in experiment [8], in [9], in experiment [10], in [11] and in experiment [12] was above 100 µM each time. For the same compound, the TGI is above 72.5 µM in experiment [13] and above 50.3 µM in experiment [14].
